Target: LdGSK-3 (Leishmania donovani, UniProt A6N857)
Assay: Inhibition of LdGSK-3 with Kinase Glo
Type: biochemical
Conditions: Table S2; 10 µM
Procedure: Assessment of inhibition of LdGSK-3 with Kinase Glo^TM
The reaction was allowed to proceed for 30 min at 30 °C, then it was incubated at room temperature for another 10 min after addition of Kinase Glo reagents (Promega, Ref. V6712). ATP consumption by LdGSK-3 was measured indirectly through end-point luminescence measurement of each well in a Varioskan Flash microplate reader (Thermo).

Sequence of LdGSK-3 (A6N857 entry or part of it): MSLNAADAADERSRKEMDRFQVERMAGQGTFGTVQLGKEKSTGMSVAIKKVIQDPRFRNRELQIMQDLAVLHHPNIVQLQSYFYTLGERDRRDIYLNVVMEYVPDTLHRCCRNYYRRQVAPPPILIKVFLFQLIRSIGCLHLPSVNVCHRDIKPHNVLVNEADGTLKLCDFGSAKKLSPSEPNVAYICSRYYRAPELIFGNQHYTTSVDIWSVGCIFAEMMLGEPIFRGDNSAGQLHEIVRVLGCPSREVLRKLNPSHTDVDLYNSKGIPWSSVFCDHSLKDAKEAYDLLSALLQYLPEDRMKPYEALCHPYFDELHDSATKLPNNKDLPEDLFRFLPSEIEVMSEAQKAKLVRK

| SMILES | % inhibition @ 10µM (initial screening on LdGSK3) [%] |
| --- | --- |
| N#Cc1cccc(CNc2ccc(-c3cnn(CC4CC4)c(=O)c3C#N)cc2)c1 [Compound 63] | -3.20±0.80 |
| CC(c1ccccn1)N(C)Cc1nc2ccccc2n1C(C)C (stereo not shown) [Compound 85] | 3.45±4.90 |
| Cc1nc(-c2ccc3c(c2)OCO3)sc1C(=O)NCc1ccc2c(c1)OCO2 [Compound 205] | 14.00±2.25 |
| O=C(c1cccc(Nc2ncc(-c3ccc4c(c3)OCO4)cn2)c1)N1CCOCC1 [Compound 189] | 12.20±0.75 |
| CC(c1ccc2c(c1)CCCC2)N(C)c1ncc2c(N)nc(N)nc2n1 (stereo not shown) [Compound 62] | 12.10±2.40 |
| Cc1nc(C(=O)Nc2ccc3c(c2)OCO3)nn1-c1ccc(F)cc1 [Compound 198] | 7.15±1.10 |
| O=C(CCCNC(=O)c1ccc(Cl)cc1)Nc1nc(-c2ccccn2)cs1 [Compound 98] | 8.50±1.10 |
| O=C(Nc1nc(-c2ccc(F)cc2)cs1)c1ccc([N+](=O)[O-])s1 [Compound 132] | 8.15±0.95 |
| Cl.c1ccc(CNc2cccc3ccncc23)cc1 [Compound 126] | 17.10±1.10 |
| COc1ccc(-c2cnc(NC(=O)c3ccc(F)cc3)n2C)cc1 [Compound 88] | 2.00±1.95 |
| CCN(CC)c1ccc(S(=O)(=O)N(CC)CC)c2nonc12 [Compound 207] | 8.90±5.85 |
| O=C(Nc1nc(-c2ccccn2)cs1)N1C[C@H]2C[C@@]2(c2ccccc2)C1 [Compound 47] | 1.55±0.55 |
| COc1ccc(NS(=O)(=O)c2cc(NC(=O)c3ccc([N+](=O)[O-])s3)ccc2OC)cc1 [Compound 131] | 19.75±3.70 |
| Cc1ccccc1CNC(=O)CN(Cc1ccccn1)Cc1ccccn1.O=C(O)C(F)(F)F [Compound 203] | 4.90±2.30 |
| Oc1c(-c2n[nH]c(CCc3ccccc3)n2)ncc2cccnc12 [Compound 66] | 0.90±0.90 |
| CCc1cc(C(=O)Nc2nccn2-c2ccccc2)cs1 [Compound 93] | -2.35±1.95 |
| COc1ccc(CNc2cc(C3CC3)nc(-c3nccn3C)n2)cc1.O=C(O)C(F)(F)F [Compound 43] | 15.30±1.60 |
| CNc1nc(C)nc(N2CCc3cc(C(=O)NCc4ccc(-c5nccn5C)cc4Cl)ccc32)n1.O=C(O)C(F)(F)F [Compound 83] | -5.05±0.45 |
| CC(C)(C)Nc1nc(-c2ccccn2)nc2ccccc12 [Compound 192] | -2.40±2.70 |
| CN(C)CCN(C)Cc1ccc(Cl)cc1NS(=O)(=O)c1ccc(Cl)c(Cl)c1 [Compound 204] | 8.00±4.85 |
| COCCn1c(-c2ccccc2)cnc1NCc1ccccc1OC.O=C(O)C(=O)O [Compound 174] | 6.00±1.50 |
| COc1ccc(CNc2nsc3ccccc23)cc1OC [Compound 150] | 13.55±4.65 |

| SMILES | % inhibition @ 10µM (initial screening on LdGSK3) [%] |
| --- | --- |
| O=C(CN(Cc1ccccn1)Cc1ccccn1)NC1Cc2ccccc2C1.O=C(O)C(F)(F)F [Compound 58] | 3.75±2.40 |
| COc1ccc(-c2cnc(NC(=O)c3cc(-c4ccccn4)n[nH]3)n2C)cc1 [Compound 90] | 6.40±2.45 |
| Nc1nc(-c2ccccn2)nc(-n2nc(-c3ccccc3)cc2N)n1.O=C(O)C(F)(F)F.O=C(O)C(F)(F)F.O=C(O)C(F)(F)F.O=C(O)C(F)(F)F.O=C(O)C(F)(F)F.O=C(O)C(F)(F)F.O=C(O)C(F)(F)F.O=C(O)C(F)(F)F [Compound 177] | 17.70±1.20 |
| COc1ccccc1C1CC(c2ccc(NS(C)(=O)=O)cc2)=NN1C(=O)c1cccs1 (stereo not shown) [Compound 195] | 16.55±4.05 |
| Nc1nc(-c2ccccn2)nc(N)c1Cc1c(F)cccc1Cl [Compound 190] | 8.15±3.40 |
| O=C(COc1nn(-c2ccccc2)c2ncccc12)NCc1ccccc1 [Compound 180] | 17.50±3.45 |
| CCc1ccc2nc(NC(=O)c3cc(N4CCOCC4)ccn3)sc2c1 [Compound 118] | 22.80±3.55 |
| CC(C)COC(=O)Nc1ccc(N2CCC(CNS(=O)(=O)c3ccccc3)CC2)c(F)c1 [Compound 46] | 4.95±4.45 |
| COc1ccc(-c2cnc(C)o2)cc1S(=O)(=O)Nc1ccc(C)cc1C [Compound 160] | 12.60±3.50 |
| CCC(=O)N1N=C(c2ccc3c(c2)CCCC3)Sc2c1ncn2C(=O)CC [Compound 127] | 9.65±3.70 |
| Cc1cc(N2CCc3ccccc3C2)nc(Nc2ccc(S(=O)(=O)N3CCOCC3)cc2)n1.Cl [Compound 73] | -3.05±0.35 |
| O=C(CN1CCN(S(=O)(=O)c2cccc([N+](=O)[O-])c2)CC1)Nc1ccc(Oc2ccccc2)cc1 [Compound 152] | -2.95±1.70 |
| CC(C)(C)c1csc(NC(=O)c2ccc([N+](=O)[O-])s2)n1 [Compound 181] | 5.90±2.90 |
| COc1ccccc1-n1c(SCC(=O)Nc2ccc3c(c2)OCO3)nc2c(c1=O)SCC2 [Compound 172] | 5.20±2.65 |
| c1ccc2sc(Nc3nc4ncccc4[nH]3)nc2c1 [Compound 86] | 6.55±2.70 |
| COCc1cc(Nc2ccc(Cl)cc2)nc(-c2ccccn2)n1 [Compound 27] | 6.35±5.75 |
| CCCn1c(NC(=O)CCn2cc(Br)cn2)nc2ccccc21 [Compound 70] | 3.80±1.25 |
| COc1ccc(Nc2nc(-c3ccccn3)cc(N3CCCC(O)C3)n2)cc1 (stereo not shown) [Compound 42] | 5.30±2.55 |
| Cc1cc(C)cc(NS(=O)(=O)c2cc(-c3cc(C)[nH]n3)ccc2C)c1 [Compound 51] | 5.95±1.25 |
| O=C(Nc1nc(-c2ccccn2)cs1)c1ccc(S(=O)(=O)N2CCCCC2)cc1 [Compound 116] | 7.05±1.35 |
| Br.Fc1ccc(Nc2nc(-c3ccccn3)cs2)cc1 [Compound 171] | 4.25±2.30 |
| OCC1CCCCN1c1cc(-c2ccccn2)nc(Nc2ccccc2)n1 (stereo not shown) [Compound 99] | 0.60±0.60 |

| SMILES | % inhibition @ 10µM (initial screening on LdGSK3) [%] |
| --- | --- |
| COc1ccc(OC)c2c(=O)c(Cc3ccccc3)c(C)[nH]c12 [Compound 110] | -0.10±5.35 |
| CCCCn1nnnc1CSc1nc(C)cc(C)c1C#N [Compound 161] | 3.00±3.05 |
| O=C(Nc1cccc(S(=O)(=O)Nc2ccc(Br)cc2)c1)c1ccc([N+](=O)[O-])s1 [Compound 133] | 15.75±4.25 |
| CCCc1cc(C(=O)Nc2ncc(-c3cccc(Br)c3)n2C)n[nH]1 [Compound 159] | 8.80±2.70 |
| COc1ccc(NS(=O)(=O)c2ccc(S(=O)(=O)N(C)C3CCCCC3)cc2)c2ncccc12 [Compound 135] | 6.85±1.55 |
| N#Cc1ccccc1S(=O)(=O)N1CCN(C(=O)CNC(=O)c2ccc3c(c2)OCO3)CC1 [Compound 82] | 1.90±2.60 |
| CCc1nn(-c2ncc(F)c(NC(C)C)n2)c(N)c1C1CCCCC1 [Compound 41] | 7.05±1.35 |
| O=C(Nc1ccccc1)Nc1nc(-c2ccccn2)cs1 [Compound 64] | 1.40±0.95 |
| COc1cccc(-c2c(C)nn(-c3nc(N)nc(-c4ccccn4)n3)c2N)c1 [Compound 61] | -2.20±1.15 |
| Cc1nn(-c2nc(N)nc(-c3ccccn3)n2)c(C)c1Cc1ccccc1 [Compound 104] | -0.75±1.55 |
| O=C(Nc1n[nH]c(-c2ccccn2)n1)C1CC1c1ccccc1 (stereo not shown) [Compound 76] | 5.70±0.50 |
| CN(C)S(=O)(=O)c1cccc(CSc2nnc(-c3ccc4c(c3)OCO4)o2)c1 [Compound 167] | 38.45±1.35 |
| COc1cc(C2SCC(=O)Nc3c2c(C)nn3-c2nc3ccccc3s2)cc(OC)c1O (stereo not shown) [Compound 179] | 29.35±2.80 |
| O=C(Nc1nc2ccccc2[nH]1)c1c(O)c2cccc3c2n(c1=O)CC3 [Compound 155] | 7.50±1.00 |
| COc1cnc2ccc(=O)n(CCN3CCC(NC/C=C/c4cc(F)ccc4F)CC3)c2c1 [Compound 84] | 3.55±2.20 |
| O=C1CN(C(=O)c2cccc(Nc3ncc(-c4ccc5c(c4)OCO5)cn3)c2)CCN1 [Compound 67] | 5.65±3.60 |
| COc1cccc(C(=O)[C@H]2C[C@@H]2CN(Cc2ccccn2)Cc2ccccn2)c1 [Compound 153] | -5.50±2.15 |
| CCN(Cc1nc2ccc(C(=O)N3CCN(c4ncccn4)CC3)cc2[nH]1)C1CCCc2cccnc21 (stereo not shown) [Compound 182] | 9.60±1.20 |
| COCCn1c(-c2ccc3c(c2)OCO3)cnc1NCc1ccccc1OC.O=C(O)C(=O)O [Compound 164] | 1.15±1.40 |
| Cc1cc2cc(CNc3ccc4c(c3)OCO4)c(=O)n(CCO)c2cc1C [Compound 188] | 20.90±4.45 |
